16 compounds from publication PMC9855371, “Antiparasitic Activity of Fluorophenyl-Substituted Pyrimido[1,2-a]benzimidazoles” (Biomedicines, 2023) can be followed below.

In one series the test system is Vero cells. The series can be described thus: In vitro cytotoxicity MTT assay in Vero cells. Type of series: cell-based. As to conditions: Chlorocebus sabaeus; after 72 h; Vero cells (African green monkey kidney epithelial cells); means of n = 3, SD ± 15%. Here is the method: MTT assays were carried out for a cytotoxicity evaluation of the test compounds. Briefly, Vero cells were cultured in 96-well plates (5 × 10^3 cells/well/200 µL) for 24 h in RPMI 1640 medium with 10% FBS and 5% CO2, at 37 °C. Cells were washed with PBS, followed by treatment with test compounds for 72 h at varying concentrations (50, 25, 12.5, 6.25, 3.13, 1.65, and 0.75 µg mL^−1) in 10% FBS medium. Cells treated solely with medium in 2% FBS were used as a negative control. The supernatant was discarded, 50 µL RPMI 1640 medium containing 14 µL MTT (5 mg mL^−1) was added, and the cells were incubated for 4 h. The supernatant was removed again, and 150 µL DMSO was added in order to dissolve the formed formazan. A FLUOstar OPTIMA spectrophotometer was applied for colorimetric analysis (λ = 540 nm). The cytotoxicity was expressed by IC50 values (concentration which caused a 50% reduction in viable cells). IC50 values were calculated from three independent experiments.
For orientation: Formazan colour is commonly taken as a measure of viable cells.

In a further series the test system is Toxoplasma gondii. Nature of the series: Toxoplasma gondii tachyzoite (RH strain) growth in infected Vero cells, infection index. Type of series: cell-based. To be noted: after 72 h, means of n = 3, SD ± 15%, read-out: EC50 (T. gondii). On the procedure: Serial passages of cells of the Vero cell line (ATCC® CCL81™, Manassas, VA, USA) were applied for the cultivation of T. gondii tachyzoites of the RH strain (a gift from Dr. Saeed El-Ashram, State Key Laboratory for Agrobiotechnology, China Agricultural University, Beijing, China). Vero cells were cultured by using complete RPMI 1640 medium with heat-inactivated 10% FBS in a humidified 5% CO2 atmosphere, at 37 °C. The 96-well plates (5 × 10^3 cells/well in 200 µL RPMI 1640 medium) were used for the cultivation of the Vero cells and then incubated, at 37 °C, and 5% CO2 for one day, followed by removal of medium and washing the cells with PBS. Then, RPMI 1640 medium containing 2% FBS and T. gondii tachyzoites (RH strain) was given to the cells at a ratio of 5 (parasite):1 (Vero cells). After incubation, at 37 °C, and 5% CO2 for 5 h, cells were washed with PBS and then treated as described below.
Control: RPMI 1640 medium containing DMSO (1%)
Experimental: Medium + compounds (dissolved in DMSO) (50, 25, 12.5, 6.25, 3.13, 1.65, and 0.75 µg mL^−1).
After incubation, at 37 °C, and 5% CO2 for 72 h, the cells were washed with PBS, fixed in 10% formalin and stained with 1% toluidine blue. Examination of the cells and determination of the infection index (number of cells infected from 200 cells tested) of T. gondii were carried out with an inverted photomicroscope. The following equation was used for the calculation of the inhibition in %:Inhibition (%) = (I Control − I Experimental)/(I Control) × 100 where “I Control” refers to the infection index of untreated cells and “I Experimental” refers to the infection index of cells treated with test compounds.
Then, effects of test compounds on parasite growth were expressed as EC50 (effective concentration at 50%) values. EC50 values were obtained from three independent experiments.

For another series, the system named is macrophages. Nature of the series: Effects of test compounds on macrophages (toxicity). It counts as cell-based, BALB/c mice. To be noted: means of n = 3, SD ± 15%.
For series [1], the system named is Leishmania major amastigotes. The series can be described thus: Leishmania major amastigotes in peritoneal macrophages, percentage of infected macrophages (Giemsa). It counts as cell-based. As to conditions: Leishmania major amastigotes after 72 h, means of n = 3, SD ± 15%.
The test system of series [2] is Leishmania major promastigotes. Nature of the series: Leishmania major promastigote viability, MTT assay. Type of series: cell-based. To be noted: Leishmania major promastigotes after 72 h, means of n = 3, SD ± 15%.

In the series with Vero cells, `O=C1C(O)=C([C@H]2CC[C@H](c3ccc(Cl)cc3)CC2)C(=O)c2ccccc21` [ATO, atovaquone, reference compound] had a half-inhibitory concentration (IC50) of 9.5 µM. For the same compound, the EC50 in the series on Toxoplasma gondii was found to be 0.07 µM.

For `N#Cc1c(-c2cc(F)cc(F)c2)nc2nc3ccccc3n2c1N` [Compound 3b, 4-Amino-2-(3,5-difluorophenyl)pyrimido[1,2-a]benzimidazole-3-carbonitrile], the melting point is > 370 °C (dec.). Further, the IC50 in the series with macrophages (Mus musculus, Macrophage) was determined as 24.3 µM. For the same compound, it took 22.7 µM to reach half-maximal inhibition in the series with Vero cells (IC50). In the series on Toxoplasma gondii, the EC50 amounted to 2.8 µM. A half-maximal response in series [1] (Leishmania major, 72 h) (EC50) required 29 µM. Also, the EC50 in series [2] (Leishmania major, 72 h) was 13.7 µM.

`N#CC1=C(n2cccc2)n2c(nc3ccccc32)NC1c1ccc(F)cc1` (centres unmarked) [Compound 4d, 4-Pyrrolo-2-(4-fluorophenyl)-1,2-dihydropyrimido[1,2-a]benzimidazole-3-carbonitrile] had a melting point above 260 °C. The compound further came in with an IC50 with macrophages (Mus musculus, Macrophage) of 47.3 µM. The compound further came in with an IC50 in the series with Vero cells of 41.4 µM. Besides, in the series with Toxoplasma gondii, the EC50 turned out to be 34.9 µM. This compound also had an EC50 in series [1] (Leishmania major, 72 h) of 51.5 µM. Moreover, the concentration giving a half-maximal response (EC50) in series [2] (Leishmania major, 72 h) is 32.1 µM.

For `N#CC1=C(N)n2c(nc3ccccc32)NC1c1cccc(F)c1` (centres unmarked) [Compound 2a, 4-Amino-2-(3-fluorophenyl)-1,2-dihydropyrimido[1,2-a]benzimidazole-3-carbonitrile], the melting point was 216 to 217 °C (dec.). In addition, the IC50 with macrophages (Mus musculus, Macrophage) is 0.98 µM. The compound also had an IC50 in the series with Vero cells of 4.32 µM. In the series with Toxoplasma gondii, the EC50 amounted to 4.59 µM. For the same compound, the EC50 in series [1] is 0.2 µM. Besides, in series [1] (Leishmania major, 72 h), the EC50 fell in the range of 0.2 to 0.4 µM. This compound came in with an EC50 in series [2] of 0.39 µM. Further, the EC50 in series [2] (Leishmania major, 72 h) lay in the range of 0.2 to 0.4 µM.

On to `N#CC1=C(N)n2c(nc3ccccc32)NC1c1ccccc1F` (centres unmarked) [Compound 2c], for which the IC50 in the series on macrophages (Mus musculus, Macrophage) was 31.4 µM; in the series on Vero cells, 18.3 µM. Besides, the EC50 was found to be 26.9 µM in the series on Toxoplasma gondii; 24.9 µM in series [1] (Leishmania major, 72 h); 49.8 µM in series [2] (Leishmania major, 72 h).

`N#CC1=C(N)n2c(nc3ccccc32)NC1c1cc(F)cc(F)c1` (centres unmarked) [Compound 2b, 4-Amino-2-(3,5-difluorophenyl)-1,2-dihydropyrimido[1,2-a]benzimidazole-3-carbonitrile] gave a melting point of 279 to 280 °C. The same compound showed an IC50 in the series on macrophages (Mus musculus, Macrophage) of 28.5 µM. Further, the half-inhibitory concentration (IC50) in the series with Vero cells was determined as 33.1 µM. For the same compound, in the series on Toxoplasma gondii, the EC50 came to 43.6 µM. Moreover, in series [1] (Leishmania major, 72 h), the EC50 is 22.9 µM. Moreover, the EC50 in series [2] (Leishmania major, 72 h) worked out at 108 µM.

On to `C[C@@H]1[C@H](O)[C@@H](C)/C=C/C=C/C=C/C=C/C=C/C=C/C=C/[C@H](O[C@@H]2O[C@H](C)[C@@H](O)[C@H](N)[C@@H]2O)C[C@@H]2O[C@](O)(C[C@@H](O)C[C@@H](O)[C@H](O)CC[C@@H](O)C[C@@H](O)CC(=O)O[C@H]1C)C[C@H](O)[C@H]2C(=O)O` [AmB, Amphotericin B, reference compound], for which 7.7 µM corresponded to half-maximal inhibition with Vero cells (IC50). Moreover, the concentration for a half-maximal effect (EC50) in series [1] (Leishmania major, 72 h) amounted to 0.47 µM; in series [2] (Leishmania major, 72 h), 0.83 µM.

As for `N#CC1=C(n2cccc2)n2c(nc3ccccc32)NC1c1cccc(F)c1` (centres unmarked) [Compound 4a, 4-Pyrrolo-2-(3-fluorophenyl)-1,2-dihydropyrimido[1,2-a]benzimidazole-3-carbonitrile], the melting point was > 260 °C (dec.). The compound also had an IC50 in the series on macrophages (Mus musculus, Macrophage) of 41.4 µM. For the same compound, in the series with Vero cells, the IC50 came to 34.9 µM. Further, the EC50 in the series on Toxoplasma gondii was 33.2 µM. The EC50 in series [1] (Leishmania major, 72 h) turned out to be 50.9 µM. Also, in series [2] (Leishmania major, 72 h), the midpoint of the response, the EC50, lay at 20.3 µM.

Regarding `N#CC1=C(n2cccc2)n2c(nc3ccccc32)NC1c1ccccc1F` (centres unmarked) [Compound 4c, 4-Pyrrolo-2-(2-fluorophenyl)-1,2-dihydropyrimido[1,2-a]benzimidazole-3-carbonitrile], the melting point is > 240 °C (dec.). In the series on macrophages (Mus musculus, Macrophage), this compound came in with an IC50 of 43.9 µM. The compound also gave an IC50 with Vero cells of 23.6 µM. For the same compound, in the series with Toxoplasma gondii, the EC50 was found to be 24.8 µM. In series [1] (Leishmania major, 72 h), this compound yielded an EC50 of 49.2 µM. In addition, the EC50 in series [2] (Leishmania major, 72 h) came to 15.2 µM.

In the case of `N#Cc1c(-c2ccccc2F)nc2nc3ccccc3n2c1N` [Compound 3c, 4-Amino-2-(2-fluorophenyl)pyrimido[1,2-a]benzimidazole-3-carbonitrile], the melting point is > 350 °C (dec.). The same compound had an IC50 in the series with macrophages (Mus musculus, Macrophage) of 21.1 µM. Besides, the IC50 in the series with Vero cells worked out at 25.7 µM. Also, in the series with Toxoplasma gondii, the half-maximal effective concentration (EC50) worked out at 20.8 µM. In addition, in series [1] (Leishmania major, 72 h), it took 27 µM to reach a half-maximal effect (EC50). Also, in series [2] (Leishmania major, 72 h), the EC50 stood at 32 µM.

As to `N#CC1=C(N)n2c(nc3ccccc32)NC1c1cccnc1` (centres unmarked) [Compound 2f, 4-Amino-2-(3-pyridyl)-1,2-dihydropyrimido[1,2-a]benzimidazole-3-carbonitrile], the melting point lay in the range of 289 to 290 °C. In the series with macrophages (Mus musculus, Macrophage), the IC50 turned out to be 86 µM. Also, half-maximal inhibition with Vero cells (IC50) required 106 µM. Moreover, the EC50 in the series with Toxoplasma gondii is 60 µM. In addition, the concentration giving a half-maximal response (EC50) in series [1] (Leishmania major, 72 h) was determined as 116 µM. The compound further displayed an EC50 in series [2] (Leishmania major, 72 h) of 53.4 µM.

For `N#CC1=C(N)n2c(nc3ccccc32)NC1c1ccc(F)cc1` (centres unmarked) [Compound 2d], the concentration for half-maximal inhibition (IC50) with macrophages (Mus musculus, Macrophage) was 19.3 µM; in the series with Vero cells it was 26.9 µM. Besides, the EC50 in the series on Toxoplasma gondii was 27.8 µM; in series [1] (Leishmania major, 72 h), 26.9 µM; in series [2] (Leishmania major, 72 h), 14.4 µM.

`N#Cc1c(-c2cccc(F)c2)nc2nc3ccccc3n2c1N` [Compound 3a, 4-Amino-2-(3-fluorophenyl)pyrimido[1,2-a]benzimidazole-3-carbonitrile]: the melting point was > 370 °C (dec.). In addition, the IC50 in the series on macrophages (Mus musculus, Macrophage) stood at 22.4 µM. 38.3 µM corresponded to half-maximal inhibition in the series with Vero cells (IC50). Also, the EC50 in the series on Toxoplasma gondii was 35.9 µM. In series [1] (Leishmania major, 72 h), this compound returned an EC50 of 28 µM. Besides, in series [2] (Leishmania major, 72 h), a half-maximal effect (EC50) was put at 35.6 µM.

Compound `COc1cc(C2Nc3nc4ccccc4n3C(N)=C2C#N)cc(Br)c1OC` (centres unmarked) [Compound 2e, 4-Amino-2-(3-bromo-4,5-dimethoxyphenyl)-1,2-dihydropyrimido[1,2-a]benzimidazole-3-carbonitrile] came in with a melting point of 282 to 283 °C. The compound further showed an IC50 in the series on macrophages (Mus musculus, Macrophage) of 64 µM. The compound further returned an IC50 in the series with macrophages of 63.8 µM. The compound further gave an IC50 in the series with Vero cells of 57.2 µM. In the series with Toxoplasma gondii, the 50% effective concentration (EC50) stood at 28.6 µM. The compound further came in with an EC50 in series [1] (Leishmania major, 72 h) of 75.5 µM. The compound further registered an EC50 in series [2] (Leishmania major, 72 h) of 77.9 µM.

Regarding `N#Cc1c(-c2ccc(F)cc2)nc2nc3ccccc3n2c1N` [Compound 3d], the IC50 came to 20.1 µM in the series with macrophages (Mus musculus, Macrophage) and 43.5 µM with Vero cells. Besides, the EC50 is 41.9 µM with Toxoplasma gondii; 26.1 µM in series [1] (Leishmania major, 72 h); 36.9 µM in series [2] (Leishmania major, 72 h).

In turn, `N#CC1=C(n2cccc2)n2c(nc3ccccc32)NC1c1cc(F)cc(F)c1` (centres unmarked) [Compound 4b, 4-Pyrrolo-2-(3,5-difluorophenyl)-1,2-dihydropyrimido[1,2-a]benzimidazole-3-carbonitrile] came in with a melting point above 240 °C. Also, the IC50 in the series with macrophages (Mus musculus, Macrophage) is 39.9 µM. In the series on Vero cells, this compound showed an IC50 of 32.4 µM. Besides, in the series with Toxoplasma gondii, the EC50 came to 18.2 µM. The EC50 in series [1] (Leishmania major, 72 h) turned out to be 46.1 µM. In series [2] (Leishmania major, 72 h), this compound had an EC50 of 28.9 µM.

One may read the IC50 as the midpoint of a concentration-inhibition curve. In general, EC50 refers to the concentration needed to bring the measured effect to its halfway point. As usually defined, the melting point is the temperature of the solid-liquid transition.
